Laboratory results taken from the NIST ThermoML archive (doi:10.1016/j.fluid.2010.10.028).
± gives the expanded uncertainty stated by the source.

Assay: xn = mol fraction of the nth substance listed
Conditions: Liquid, Vibrating tube method

CC(C)=O [acetone] + CCCCCCC
Conditions	mass density [kg/m3]
417.19 K, 24970 kPa, x1 = 0.4	667.12 ± 1.3
417.19 K, 24970 kPa, x1 = 0.8992	667.12 ± 1.3
417.19 K, 29860 kPa, x1 = 0.801	662.11 ± 1.3
417.19 K, 29960 kPa, x1 = 0.4	675.37 ± 1.3
417.19 K, 29960 kPa, x1 = 0.8992	675.37 ± 1.3
417.19 K, 34850 kPa, x1 = 0.801	669.57 ± 1.3
417.19 K, 34950 kPa, x1 = 0.4	682.9 ± 1.3
417.19 K, 34950 kPa, x1 = 0.8992	682.9 ± 1.3
417.19 K, 39860 kPa, x1 = 0.801	676.46 ± 1.4
417.19 K, 39930 kPa, x1 = 0.4	689.8 ± 1.4
417.19 K, 39930 kPa, x1 = 0.8992	689.8 ± 1.3
417.19 K, 44860 kPa, x1 = 0.801	682.8 ± 1.4
417.19 K, 44890 kPa, x1 = 0.7024	672.51 ± 1.4
417.19 K, 49870 kPa, x1 = 0.801	688.76 ± 1.4
417.19 K, 49890 kPa, x1 = 0.4	702.22 ± 1.4
417.19 K, 49890 kPa, x1 = 0.7024	678.35 ± 1.4
417.19 K, 49890 kPa, x1 = 0.8992	702.22 ± 1.4
417.19 K, 54860 kPa, x1 = 0.801	694.3 ± 1.4
417.19 K, 54870 kPa, x1 = 0.4	707.85 ± 1.4
417.19 K, 54870 kPa, x1 = 0.8992	707.85 ± 1.4
417.19 K, 54880 kPa, x1 = 0.7024	683.78 ± 1.4
417.19 K, 59860 kPa, x1 = 0.7024	688.95 ± 1.4
417.19 K, 59870 kPa, x1 = 0.801	699.57 ± 1.4
417.19 K, 64830 kPa, x1 = 0.801	704.51 ± 1.4
417.19 K, 69830 kPa, x1 = 0.801	709.22 ± 1.5
417.19 K, 74920 kPa, x1 = 0.801	713.82 ± 1.5
417.19 K, 79790 kPa, x1 = 0.7024	707.06 ± 1.5
417.19 K, 79800 kPa, x1 = 0.4	732.02 ± 1.5
417.19 K, 79800 kPa, x1 = 0.8992	732.02 ± 1.5
417.19 K, 79910 kPa, x1 = 0.801	718.11 ± 1.5
417.19 K, 84890 kPa, x1 = 0.801	722.24 ± 1.5
417.19 K, 89750 kPa, x1 = 0.4	740.27 ± 1.6
417.19 K, 89750 kPa, x1 = 0.8992	740.27 ± 1.5
417.19 K, 94870 kPa, x1 = 0.801	730.03 ± 1.6
417.19 K, 104800 kPa, x1 = 0.801	737.2 ± 1.6
417.19 K, 114770 kPa, x1 = 0.801	743.97 ± 1.7
417.19 K, 119800 kPa, x1 = 0.7024	735.65 ± 1.7
417.19 K, 119830 kPa, x1 = 0.801	747.24 ± 1.7
417.19 K, 124820 kPa, x1 = 0.7024	738.72 ± 1.8
417.19 K, 124830 kPa, x1 = 0.801	750.39 ± 1.7
417.19 K, 129810 kPa, x1 = 0.7024	741.7 ± 1.8
417.19 K, 129840 kPa, x1 = 0.801	753.43 ± 1.7
417.2 K, 1810 kPa, x1 = 0.7024	587.77 ± 1.2
417.2 K, 4810 kPa, x1 = 0.7024	598.33 ± 1.2
417.2 K, 9830 kPa, x1 = 0.7024	612.79 ± 1.2
417.2 K, 14820 kPa, x1 = 0.7024	624.66 ± 1.3
417.2 K, 19830 kPa, x1 = 0.7024	634.93 ± 1.3
417.2 K, 24810 kPa, x1 = 0.7024	643.93 ± 1.3
417.2 K, 29810 kPa, x1 = 0.7024	652.02 ± 1.3
417.2 K, 34810 kPa, x1 = 0.7024	659.38 ± 1.3
417.2 K, 39820 kPa, x1 = 0.7024	666.17 ± 1.4
417.2 K, 44910 kPa, x1 = 0.4	696.21 ± 1.4
417.2 K, 44910 kPa, x1 = 0.8992	696.21 ± 1.4
417.2 K, 59870 kPa, x1 = 0.4	713.19 ± 1.4
417.2 K, 59870 kPa, x1 = 0.8992	713.19 ± 1.4
417.2 K, 64850 kPa, x1 = 0.4	718.24 ± 1.4
417.2 K, 64850 kPa, x1 = 0.7024	693.8 ± 1.5
417.2 K, 64850 kPa, x1 = 0.8992	718.24 ± 1.4
417.2 K, 69820 kPa, x1 = 0.4	723.05 ± 1.5
417.2 K, 69820 kPa, x1 = 0.8992	723.05 ± 1.4
417.2 K, 69830 kPa, x1 = 0.7024	698.42 ± 1.5
417.2 K, 74810 kPa, x1 = 0.4	727.63 ± 1.5
417.2 K, 74810 kPa, x1 = 0.8992	727.63 ± 1.5
417.2 K, 74820 kPa, x1 = 0.7024	702.83 ± 1.5
417.2 K, 84780 kPa, x1 = 0.4	736.22 ± 1.5
417.2 K, 84780 kPa, x1 = 0.7024	711.1 ± 1.6
417.2 K, 84780 kPa, x1 = 0.8992	736.22 ± 1.5
417.2 K, 89760 kPa, x1 = 0.7024	714.98 ± 1.6
417.2 K, 89890 kPa, x1 = 0.801	726.21 ± 1.6
417.2 K, 94720 kPa, x1 = 0.4	744.15 ± 1.6
417.2 K, 94720 kPa, x1 = 0.8992	744.15 ± 1.6
417.2 K, 94740 kPa, x1 = 0.7024	718.71 ± 1.6
417.2 K, 99690 kPa, x1 = 0.4	747.91 ± 1.6
417.2 K, 99690 kPa, x1 = 0.8992	747.91 ± 1.6
417.2 K, 99840 kPa, x1 = 0.7024	722.39 ± 1.6
417.2 K, 99840 kPa, x1 = 0.801	733.67 ± 1.6
417.2 K, 104650 kPa, x1 = 0.4	751.51 ± 1.6
417.2 K, 104650 kPa, x1 = 0.8992	751.51 ± 1.6
417.2 K, 104810 kPa, x1 = 0.7024	725.87 ± 1.7
417.2 K, 109620 kPa, x1 = 0.4	755.03 ± 1.6
417.2 K, 109620 kPa, x1 = 0.8992	755.03 ± 1.6
417.2 K, 109800 kPa, x1 = 0.801	740.64 ± 1.6
417.2 K, 109810 kPa, x1 = 0.7024	729.22 ± 1.7
417.2 K, 114590 kPa, x1 = 0.4	758.45 ± 1.6
417.2 K, 114590 kPa, x1 = 0.8992	758.45 ± 1.6
417.2 K, 114820 kPa, x1 = 0.7024	732.49 ± 1.7
417.2 K, 119550 kPa, x1 = 0.4	761.72 ± 1.7
417.2 K, 119550 kPa, x1 = 0.8992	761.72 ± 1.6
417.2 K, 124810 kPa, x1 = 0.4	765.12 ± 1.7
417.2 K, 124810 kPa, x1 = 0.8992	765.12 ± 1.7
417.2 K, 129820 kPa, x1 = 0.4	768.24 ± 1.7
417.2 K, 129820 kPa, x1 = 0.8992	768.24 ± 1.7
